Reference: ChEMBL document CHEMBL1130188, “Synthesis and stereochemical structure-activity relationships of 1,3-dioxoperhydropyrido[1,2-c]pyrimidine derivatives: potent and selective cholecystokinin-A receptor antagonists” (J Med Chem, 1997)

How the values were obtained:
[1] = target: T1, Cholecystokinin receptor type A (Rattus norvegicus, UniProt P30551); experiment: Inhibition of [3H]pCCK-8 specific binding to Cholecystokinin type A receptor of rat pancreas
T1 sequence (P30551 whole entry): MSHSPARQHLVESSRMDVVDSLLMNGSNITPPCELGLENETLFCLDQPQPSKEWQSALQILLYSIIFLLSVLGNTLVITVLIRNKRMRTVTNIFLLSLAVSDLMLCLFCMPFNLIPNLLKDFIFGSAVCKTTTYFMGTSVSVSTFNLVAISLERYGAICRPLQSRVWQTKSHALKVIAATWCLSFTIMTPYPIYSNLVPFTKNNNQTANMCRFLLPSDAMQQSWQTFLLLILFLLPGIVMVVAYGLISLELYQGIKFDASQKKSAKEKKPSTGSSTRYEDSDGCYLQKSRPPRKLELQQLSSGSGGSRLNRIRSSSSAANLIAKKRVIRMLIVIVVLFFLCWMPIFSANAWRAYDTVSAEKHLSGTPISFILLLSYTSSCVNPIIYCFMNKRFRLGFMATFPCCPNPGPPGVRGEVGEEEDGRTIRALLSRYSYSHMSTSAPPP

[2] = target: T2, Gastrin/cholecystokinin type B receptor (Rattus norvegicus, UniProt P30553); experiment: Inhibition of [3H]- pCCK-8 binding to Cholecystokinin type B receptor of rat cerebral cortex membranes; assay type: cell membranes, Membrane
T2 sequence (P30553 whole entry): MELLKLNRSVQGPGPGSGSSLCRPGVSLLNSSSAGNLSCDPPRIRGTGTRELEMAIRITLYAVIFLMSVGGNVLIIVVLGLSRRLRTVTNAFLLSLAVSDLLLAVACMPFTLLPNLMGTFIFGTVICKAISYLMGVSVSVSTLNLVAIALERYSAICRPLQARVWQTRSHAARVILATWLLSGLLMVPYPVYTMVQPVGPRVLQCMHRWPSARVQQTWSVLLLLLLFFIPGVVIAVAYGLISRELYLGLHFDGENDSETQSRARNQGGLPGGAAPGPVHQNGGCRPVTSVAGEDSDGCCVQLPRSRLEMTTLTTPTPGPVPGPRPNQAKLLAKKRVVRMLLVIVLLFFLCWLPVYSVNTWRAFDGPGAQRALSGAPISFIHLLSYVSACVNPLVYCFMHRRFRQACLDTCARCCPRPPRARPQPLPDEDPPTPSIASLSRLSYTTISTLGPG

Rattus norvegicus = species on record: Rattus norvegicus; experiment: Compound was tested for inhibition of amylase release stimulated by CCK-8 (0.5 nM) in dispersed pancreatic acini.

`CC(C)(C)OC(=O)N[C@H](Cc1c[nH]c2ccccc12)C(=O)N[C@H]1CCCN2C(=O)N(Cc3ccccc3)C(=O)C[C@H]12` was tested, and the Ki [1] was > 5 µM and the Ki [2] was > 5 µM.
For `CC(C)(C)OC(=O)N[C@@H](Cc1c[nH]c2ccccc12)C(=O)N[C@H]1CCCN2C(=O)N(Cc3ccccc3)C(=O)C[C@H]12`, the Ki [1] was 0.572 µM and the Ki [2] was > 5 µM.
For `CC(C)(C)OC(=O)N[C@@H](Cc1c[nH]c2ccccc12)C(=O)N[C@@H]1CCCN2C(=O)N(Cc3ccccc3)C(=O)C[C@H]12`, the Ki [1] was 0.0106 µM, the Ki [2] was 2.73 µM and the IC50 (Rattus norvegicus) was 0.201 µM.
`CC(C)(C)OC(=O)N[C@H](Cc1c[nH]c2ccccc12)C(=O)N[C@@H]1CCCN2C(=O)N(Cc3ccccc3)C(=O)C[C@@H]12` was tested, and the Ki [1] was > 5 µM and the Ki [2] was 1.89 µM.
With `CC(C)(C)OC(=O)N[C@H](Cc1c[nH]c2ccccc12)C(=O)N[C@H]1CCCN2C(=O)N(Cc3ccccc3)C(=O)C[C@@H]12` the Ki [1] was 0.298 µM and the Ki [2] was > 5 µM.
With `COC(=O)[C@]1(Cc2ccccc2)C[C@@H]2[C@@H](NC(=O)[C@@H](Cc3c[nH]c4ccccc34)NC(=O)OC(C)(C)C)CCCN2C1=O` the Ki [1] was > 5 µM and the Ki [2] was 1.56 µM.
With `CC(C)(C)OC(=O)N[C@@H](Cc1c[nH]c2ccccc12)C(=O)N[C@H]1CCCN2C(=O)N(Cc3ccccc3)C(=O)C[C@@H]12` the Ki [1] was 0.00062 µM, the Ki [2] was > 5 µM and the IC50 (Rattus norvegicus) was 0.0213 µM.
For `COC(=O)[C@@]1(Cc2ccccc2)C[C@@H]2[C@@H](NC(=O)[C@H](Cc3c[nH]c4ccccc34)NC(=O)OC(C)(C)C)CCCN2C1=O`, the Ki [2] was > 5 µM.
In the case of `CC(C)(C)OC(=O)N[C@H](Cc1c[nH]c2ccccc12)C(=O)N[C@@H]1CCCN2C(=O)N(Cc3ccccc3)C(=O)C[C@H]12`, the Ki [2] is reported as > 5 µM.
Work on `CN1C(=O)[C@H](NC(=O)c2cc3ccccc3[nH]2)N=C(c2ccccc2)c2ccccc21` yielded an IC50 (Rattus norvegicus) of 0.0254 µM.
In the case of `CC(C)(C)OC(=O)N[C@@H](Cc1c[nH]c2ccccc12)C(=O)N[C@@H]1CCCN2C(=O)N(Cc3ccccc3)C(=O)C[C@@H]12` [IQM-95333], the Ki [1] is reported as 2.89 µM and the Ki [2] is reported as 2.91 µM.
